Consider one compound from patent US11021545B2, “Multimodal cancer therapy comprising chimeric viral/nonviral nanoparticles and anticancer agents” (The Regents of the University of California, priority 2018, dated 2021).

The subject of this test is BCR-ABL+ FL 5.12 p190 cells. The test can be described thus: cells. The settings on record: Mus musculus, FL5.12, read-out: IC50 of dasatinib without ChNPs.

A word on the IC50: it is the concentration that gives 50% inhibition.

Description: Viability was tested three days after delivery. […] After 24 h, PBS, BIM AAV alone, MCL-1 siRNA alone, mixture of BIM AAV and siRNA, and various ChNPs (Null/Scr, Null/MCL-1, BIM/Scr, BIM/MCL-1 ChNPs) are added to the cells at different BIM AAV and MCL-1 siRNA concentrations. To measure cell viability, the cells maintained with fresh media everyday are pelleted by centrifugation (2000 rpm, 5 min, 4° C.) and resuspended in fresh media. The cells in 90 μL medium then are transferred into a 96-well plate where MTT (5 mg/mL in 10 μL PBS) is subsequently added. After 4 h of incubation at 37° C., the well plate is centrifuged at 2000 rpm and 4° C. for 5 min, and the media is replaced by 100 μL DMSO per well. The relative cell viability is quantified by comparing absorptions at 570 nm using a microplate reader (Synergy H1, Biotek), based on the absorption in the wells containing nontreated cells.

With `Cc1nc(Nc2ncc(C(=O)Nc3c(C)cccc3Cl)s2)cc(N2CCN(CCO)CC2)n1` [dasatinib], the IC50 is 1 nM.
